Article PMC11574021, “CEP192 localises mitotic Aurora-A activity by priming its interaction with TPX2” (The EMBO Journal, 2024)

Experiments:
[1] = system: TCTP-pS46 in RPE1 p53-/- cells; assay: Western blot densitometry, TCTP-pS46, RPE1 p53-/-; format: cell-based, Homo sapiens; conditions: mitotic RPE1 p53-/- lysates, inhibitor 30 min
Description: For measuring monopolar spindle diameter and counting centriolar foci by immunofluorescence, cells were treated with 10 µM STLC for 1 h and 4 h prior to fixation, respectively.
Drugs were resuspended in DMSO to the stock concentrations indicated in square brackets.
Cells were lysed on ice for 30 min in lysis buffer (50 mM tris pH 8.0, 300 mM NaCl, 0.2%(v/v) NP-40, 10%(v/v) glycerol, protease inhibitor cocktail C, phosphatase inhibitor cocktail 3 (Sigma, 1:200 dilution), 100 nM okadaic acid (Enzo, ALX-350-003-C100)). Lysates were then centrifuged at 14,000 × g, 15 min, 4 °C, the supernatants were transferred to a fresh tube, and the pellet was discarded. Protein concentrations were measured by Bradford assay using Protein Assay Dye Reagent Concentrate (Bio-Rad Laboratories, 5000006). NuPage LDS sample buffer, supplemented with NuPAGE sample reducing agent (Invitrogen) were added prior to boiling for 10 min at 90 °C. […] Nitrocellulose was then blocked in 5% milk (wt/v) in TBS, 0.1% Tween (v/v) (TBST) for 1 h. Primary and secondary antibodies were diluted in 5% milk, TBST and incubated overnight at 4 °C or for 1 h at room temperature, respectively. […]
Densitometric quantification of western blots was also performed in ImageJ. Intensity was measured in a rectangular region of interest (ROI) around each band. […] An adjacent region was also measured to account for background intensity.

[2] = system: Aurora-A:TACC3 complexes in RPE1 p53-/- cells; assay: Proximity ligation assay Aurora-A:TACC3, RPE1 p53-/-; format: cell-based, Homo sapiens; conditions: siRNA 48 h
Description: siRNA depletion was carried out by reverse transfection using oligofectamine (Thermo Scientific, 12252011) and lipofectamine RNAiMax (Thermo Scientific, 13778075), according to the manufacturer’s instructions, for U251 and RPE1 cells, respectively. For immunofluorescence, 1 × 10^5 cells were seeded in six-well plates and simultaneously transfected with 60 pmol siRNA duplex and 3 µl transfection reagent diluted in 200 µl Opti-MEM serum-free medium. Growth medium was added to a final volume of 2 ml. For western blotting, 1 × 10^6 cells were seeded in 10 cm dishes and transfected with 300 pmol siRNA duplex and 15 µl transfection reagent diluted in 1000 µl Opti-MEM. Growth medium was added to a final volume of 10 ml. Cells were incubated with siRNA for 48 h prior to fixation or harvesting. As a negative control (siControl) Silencer select negative control No.1 siRNA was transfected as above. For TACC3 depletion, where two siRNA duplexes were used, 40 pmol of each was transfected per well.
Cells were seeded and fixed as above, then a proximity ligation assay (PLA) was carried out according to the manufacturer’s instructions with the supplied buffers (Navinci, NaveniFlex Cell MR Red, NC.MR.100 Red). All incubations are for 1 h at 37 °C, unless otherwise stated. […]

| Compound | phosphorylation of TCTP (pS46) [1] | PLA foci formation between TACC3 and Aurora-A antibodies [2] |
| --- | --- | --- |
| COc1cc(Nc2ncc3c(n2)-c2ccc(Cl)cc2C(c2c(F)cccc2OC)=NC3)ccc1C(=O)O [Alisertib] | decreased | – |
| 5′-CGGUAGUGAUAAAAGCUCAtt-3′ [siTPX2] | – | fully prevented both spindle recruitment of TACC3 and PLA foci formation |
